Laboratory results published in patent US9950026B2, “Methods for reducing oxidative damage” (Cornell Research Foundation, Inc., priority 2004, dated 2018).
Where a SMILES comes first, the peptide text is derived from it. [ ]: non-standard residue; d: D form. Dmt = Cc1cc(O)cc(C)c1C[C@H](N)C(=O)O

How the values were obtained:
Caco-2 = experiment: Cellular uptake of [3H][Dmt1]DALDA; assay type: in vitro ADME, human; conditions: estimated
Procedure: The cellular uptake of [^3H][Dmt^1]DALDA was studied using a human intestinal epithelial cell line (Caco-2), and confirmed with SH-SY5Y (human neuroblastoma cell), HEK293 (human embryonic kidney cell) and CRFK cells (kidney epithelial cell). Monolayers of cells were grown on 12-well plates (5×10^5 cells/well) coated with collagen for 3 days. On day 4, cells were washed twice with pre-warmed HBSS, and then incubated with 0.2 ml of HBSS containing either 250 nM [^3H][Dmt^1]DALDA at 37° C. […] 4° C. for various times up to 1 h.
In a separate experiment, cells were incubated with a range of [Dmt^1]DALDA concentrations (1 μM-3 mM) for 1 h at 37° C. At the end of the incubation period, cells were washed 4 times with HBSS, and 0.2 ml of 0.1N NaOH with 1% SDS was added to each well. The cell contents were then transferred to scintillation vials and radioactivity counted. To distinguish between internalized radioactivity from surface-associated radioactivity, an acid-wash step was included. Prior to cell lysis, cells were incubated with 0.2 ml of 0.2 M acetic acid/0.05 M NaCl for 5 min on ice.

[1] = system: G93A transgenic familial ALS mice; experiment: Motor performance by rotarod in ALS mice; assay type: in vivo; conditions: between day 100 and 130
SH-SY5Y cells = experiment: Cell viability, MTS assay, cells treated with tBHP; assay type: cell-based, human; conditions: t-BHP 0.05-0.1 mM, 24 h
Procedure: Neuronal N2A and SH-SY5Y cells were plated in 96-well plate at a density of 1×10^4/well and allowed to grow for 2 days before treatment with t-butyl hydroperoxide (tBHP) (0.05-0.1 mM) with or without SS-31 (10^−12 M to 10^−9 M for 24 h. Cell death was assessed by a cell proliferation assay (MTS assay, Promega, Madison, Wis.).

N2A cells [2] = experiment: Mitochondrial potential (TMRM) after tBHP; assay type: cell-based, murine; conditions: 0.1 mM t-BHP, 1 nM SS-31, 6 h
Procedure: N2A cells in glass bottom dish were treated with 0.1 mM t-BHP, alone or with 1 nM SS-31, for 6 h. Cells were then loaded with 10 μm of dichlorofluorescin (ex/em=485/530) for 30 min at 37° C., 5% CO2. Then cells were subjected 3 times wash with HBSS and stained with 20 nM of Mitotracker TMRM (ex/em=550/575 nm) for 15 min at 37° C. and examined by confocal laser scanning microscopy.

N2A cells [3] = experiment: Lipid peroxidation, HNE Michael adducts, after tBHP; assay type: cell-based, murine; conditions: t-BHP 1 mM, 3 h
Procedure: Lipid peroxidation was evaluated by measuring HNE Michael adducts. 4-HNE is one of the major aldehydic products of the peroxidation of membrane polyunsaturated fatty acids. N2A cells were seeded on glass bottom dish 1 day before t-BHP treatment (1 mM, 3 h, 37° C., 5% CO2) in the presence of absence of SS-31 (10^−8 to 10^−10 M). Cells were then washed twice with PBS and fixed 30 min with 4% paraformaldehyde in PBS at RT and then washed 3 times with PBS. Cells were then permeabilized, treated with rabbit-anti-HNE antibody followed by the secondary antibody (goat anti-rabbit IgG conjugated to biotin). Cells were mounted in Vectashield and imaged using a Zeiss fluorescence microscope using an excitation wavelength of 460±20 nm and a longpass filter of 505 nm for emission.

N2A cells [4] = experiment: Phosphatidylserine translocation, Annexin V and propidium iodide staining after tBHP; assay type: cell-based, murine; conditions: 50 μM tBHP, 1 nM SS-31, 6 h
Procedure: FIG. 19A-19C. […] N2A cells were incubated with 50 μM tBHP for 6 h and stained with Annexin V and propidium iodide (PI). […] Combined staining with Annexin V and PI (red) indicate late apoptotic cells.
The translocation of phosphatidylserine from the inner leaflet of the plasma membrane to the outer leaflet is observed early in the initiation of apoptosis. This can be observed with Annexin V, a phospholipid binding protein with high affinity for phosphatidylserine.

N2A cells [5] = experiment: Nuclear condensation (Hoechst) after tBHP; assay type: cell-based, murine; conditions: 50 μM tBHP, 12 h
Procedure: FIG. 20A-20C. […] (A)(a-c; a′-c′) N2A cells were treated with 50 μM tBHP alone or with SS-31 for 12 h. Cells were stained with Hoechst 33342 for 20 min., fixed, and imaged by fluorescent microscopy. (a) Untreated cells show uniformly stained nuclei (a′). […] (c) Cells treated with tBHP and 1 nM SS-31 had less nuclear changes (c′). […] Apoptotic cells were counted using MetaMorph software. *P<0.01 compared to untreated cells; *P<0.01 compared to tBHP alone. […] SH-SY5Y cells were treated with 25 μM tBHP for 24 h. *P<0.01 compared to untreated cells; *P<0.01 compared to tBHP alone.
The morphological appearance of cells treated with tBHP was also consistent with apoptosis. N2A cells incubated with 50 μM tBHP for 12 h became rounded and shrunken (FIG. 20A, panel b). […] These nuclear changes were abolished by concurrent treatment with 1 nM SS-31 (FIG. 20A, panel c′).

[6] = system: C57BL/6 mice subjected to MCAO; experiment: Infarct size, swelling and cerebral blood flow after MCAO; assay type: in vivo; conditions: for reduction in infarct volume: 2 mg/kg i.p., 3 days after ischemia
Procedure: FIG. 32A-32F. Effect of SS-31 peptide on ischemia-induced infarct size and swelling in C57BL/6 mice. Shown are representative serial sections (1.2 mm apart) stained with Cresyl Violet from mice subjected to 30 min (A) and 20 min (B) MCAO and treated with vehicle (Veh) or SS-31 (2 mg/kg body weight) immediately after reperfusion, 6 h, 24 h, and 48 h.
To address whether SS-31-induced attenuation in GSH depletion is associated with neuroprotection, mice were subjected to 30 or 20 min MCAO and then treated with vehicle or SS-31 (2 mg/kg, i.p.) upon reperfusion) and at 6 h, 24 h, 48 h after MCAO. Infarct volumes and hemispheric swelling were determined at 3 days after ischemia.

2′,6′-Dmt-Arg-Phe-Lys-NH2 [SS-02]
intracellular concentration relative to extracellular concentration (Caco-2): approximately 50 times

Cc1cc(O)cc(C)c1C[C@H](NC(=O)[C@H](N)CCCNC(=N)N)C(=O)N[C@@H](CCCCN)C(=O)N[C@@H](Cc1ccccc1)C(N)=O [SS-31, D-Arg-2′6′-Dmt-Lys-Phe-NH2] (H-[dR][Dmt]KF-NH2; N-terminus assumed)
motor performance (rotarod) [1]: significantly improved | concentration achieving complete protection against t-BHP (SH-SY5Y cells): 1 nM | t-BHP-induced cytotoxicity (SH-SY5Y cells; concurrent treatment): dose-dependent reduction | mitochondrial depolarization (TMRM fluorescence) (N2A cells [2]): prevented mitochondrial depolarization | lipid peroxidation (HNE adducts) (N2A cells [3]): inhibited lipid peroxidation | Annexin V-positive cells (N2A cells [4]): reduction | propidium iodide staining (N2A cells [4]): no propidium iodide staining | number of apoptotic cells (N2A cells [5]): dose-dependently reduced | nuclear changes (fragmentation and condensation) (N2A cells [5]; 1 nM SS-31): abolished | reduction in infarct volume ([6]; 20 min ischemia): 30% | reduction in infarct volume ([6]; 30 min ischemia): 24% | hemispheric swelling ([6]; both 30 and 20 min ischemic paradigms): significantly attenuated
